Experimental data: patent US7414061B2, “Aryl-isoxazol-4-yl-imidazole derivatives” (Hoffmann-La Roche Inc., priority 2005, dated 2008)

What follows are molecules tested against T1, GABA A receptor α5β3γ2 (hα5) (Homo sapiens, UniProt P18507+P31644) (assay: [3H]flumazenil competition binding assay, human GABA A α5β3γ2). Details: displacement of [3H]flumazenil (0.5 nM) from HEK293 cell membranes expressing α5β3γ2; means of two determinations; read-out: Ki[nM] hα5.
T1 construct: expressed in transfected cells; host or cells: HEK293 (transiently transfected), membrane preparation

Molecule | Ki
Cc1onc(-c2ccccc2)c1-c1cn(-c2ccc(C#N)cc2)c(COCc2ccccc2)n1 [Example 65, 4-[2-Benzyloxymethyl-4-(5-methyl-3-phenyl-isoxazol-4-yl)-imidazol-1-yl]-benzonitrile] | 19.1 nM
1-{4-(4-[5-Ethyl-3-(4-fluoro-phenyl)-isoxazol-4-yl]-imidazol-1-yl}-phenyl)-ethanone [Example 132] | 4.7 nM
Cc1onc(-c2ccccc2)c1-c1cn(-c2cccc(Cl)c2)cn1 [Example 5, 4-[1-(3-Chloro-phenyl)-1H-imidazol-4-yl]-5-methyl-3-phenyl-isoxazole] | 29.1 nM
Cc1onc(-c2ccc(F)cc2)c1-c1cn(-c2ccc(C#N)cc2)cn1 [Example 116, 4-{4-[3-(4-Fluoro-phenyl)-5-methyl-isoxazol-4-yl]-imidazol-1-yl}-benzonitrile] | 13.2 nM
Cc1onc(-c2ccccc2)c1-c1cn(-c2ccc(C(=O)NC3CCOCC3)cc2)cn1 [Example 77, 4-[4-(5-Methyl-3-phenyl-isoxazol-4-yl)-imidazol-1-yl]-N-(tetrahydro-pyran-4-yl)-benzamide] | 27.3 nM
COc1ccc(-n2cnc(-c3c(-c4ccccc4)noc3C)c2)cc1 [Example 18, 4-[1-(4-Methoxy-phenyl)-1H-imidazol-4-yl]-5-methyl-3-phenyl-isoxazole] | 21 nM
Cc1onc(-c2ccccc2)c1-c1cn(-c2ccc(C(=O)NCCCN3CCOCC3)cc2)cn1 [Example 73, 4-[4-(5-Methyl-3-phenyl-isoxazol-4-yl)-imidazol-1-yl]-N-(3-morpholin-4-yl-propyl)-benzamide] | 14.6 nM
Cc1onc(-c2ccccc2)c1-c1cn(-c2cc(F)cc(F)c2)cn1 [Example 24, 4-[1-(3,5-Difluoro-phenyl)-1H-imidazol-4-yl]-5-methyl-3-phenyl-isoxazole] | 29 nM
Cc1onc(-c2cccc(F)c2)c1-c1cn(-c2ccc(C(=O)NCCO)cc2)cn1 [Example 101, 4-{4-[3-(3-Fluoro-phenyl)-5-methyl-isoxazol-4-yl]-imidazol-1-yl}-N-(2-hydroxy-ethyl)-benzamide] | 27 nM
Cc1onc(-c2ccccc2)c1-c1cn(-c2cccc(Br)c2)cn1 [Example 7, 4-[1-(3-Bromo-phenyl)-1H-imidazol-4-yl]-5-methyl-3-phenyl-isoxazole] | 30.9 nM
Cc1onc(-c2cccc(F)c2)c1-c1cn(-c2ccc(C(=O)NC3CC3)cc2)cn1 [Example 98, N-Cyclopropyl-4-{4-[3-(3-fluoro-phenyl)-5-methyl-isoxazol-4-yl]-imidazol-1-yl}-benzamide] | 17.7 nM
Cc1onc(-c2ccccc2)c1-c1cn(-c2ccc([N+](=O)[O-])cc2)c(COCc2ccccn2)n1 [Example 161, 2-[4-(5-Methyl-3-phenyl-isoxazol-4-yl)-1-(4-nitro-phenyl)-1H-imidazol-2-ylmethoxymethyl]-pyridine] | 16.3 nM
